ChEMBL document CHEMBL3045131, “Cyclopenta[b]benzofurans from Aglaia species with pronounced antifungal activity against rice blast fungus (Pyricularia grisea)” (J Agric Food Chem, 2000)
≈ marks a conversion by molar mass, not a printed value. Calls of active or inactive are those of the source. The calls are words filed in the database; no cut-off is given here.

What was measured:
Assay type in all cases: functional, organism-based
Fusarium avenaceum = experiment: Antifungal activity against Fusarium avenaceum VIAM MA1512 assessed as inhibition of spore germination by microdilution technique linked with digital image analysis
Alternaria citri [1] = experiment: Antifungal activity against Alternaria citri CBS 192.81; VIAM MA1628 assessed as inhibition of spore germination by microdilution technique linked with digital image analysis
Pyricularia grisea = experiment: Antifungal activity against Magnaporthe grisea VIAM MA1627 assessed as inhibition of spore germination by microdilution technique linked with digital image analysis
Alternaria citri [2] = experiment: Antifungal activity against Alternaria citri CBS 192.81; VIAM MA1628 assessed as inhibition of spore germination at 200 ug/ml by microdilution technique linked with digital image analysis

SMILES	EC50 (Fusarium avenaceum) [µg/mL]	EC90 (Fusarium avenaceum) [µg/mL]	MIC (Fusarium avenaceum) [µg/mL]	EC50 (Alternaria citri [1]) [µg/mL]	EC90 (Alternaria citri [1]) [µg/mL]	MIC (Alternaria citri [1]) [µg/mL]	EC50 (Pyricularia grisea) [µg/mL]	EC90 (Pyricularia grisea) [µg/mL]	MIC (Pyricularia grisea) [µg/mL]	Activity (Alternaria citri [2])
COC(=O)[C@H]1[C@@H](O)[C@@]2(O)c3c(OC)cc(OC)cc3O[C@@]2(c2ccc(OC)cc2)[C@@H]1c1ccccc1 [AGLAFOLIN]	1.6 (≈ 3.25 µM)	38 (≈ 77.2 µM)	100 (≈ 203 µM)	44 (≈ 89.3 µM)	171 (≈ 347 µM)	200 (≈ 406 µM)	0.05 (≈ 0.102 µM)	8 (≈ 16.2 µM)	3 (≈ 6.09 µM)	–
COc1ccc(C2C(=O)Oc3cc4c(c(OC)c32)OCO4)cc1 (configuration not stated) [AGLALACTONE]	–	–	–	–	–	–	> 200	> 200	> 200	–
COc1ccc([C@@]23Oc4cc5c(c(OC)c4[C@]2(O)[C@H](O)[C@H](C(=O)N(C)C)[C@H]3c2ccccc2)OCO5)cc1 [AGLAROXIN A]	–	–	–	–	–	–	1.4 (≈ 2.69 µM)	> 200	100 (≈ 192 µM)	–
CCCCNC(=O)n1c(NC(=O)OC)nc2ccccc21 [BENOMYL]	–	> 200	100 (≈ 344 µM)	> 200	> 200	> 200	–	84 (≈ 289 µM)	200 (≈ 689 µM)	–
CN(CC[C@H](N)CC(=O)N[C@H]1C=C[C@H](n2ccc(N)nc2=O)O[C@@H]1C(=O)O)C(=N)N [BLASTICIDIN_S]	0.4 (≈ 0.947 µM)	7 (≈ 16.6 µM)	25 (≈ 59.2 µM)	6 (≈ 14.2 µM)	53 (≈ 125 µM)	50 (≈ 118 µM)	–	> 200	> 200	–
CNC(=O)[C@H]1[C@@H](O)[C@@]2(O)c3c(OC)cc(OC)cc3O[C@@]2(c2ccc(OC)cc2)[C@@H]1c1ccccc1 [DESMETHYL ROCAGLAMIDE]	–	–	–	–	–	–	7 (≈ 14.2 µM)	146 (≈ 297 µM)	100 (≈ 203 µM)	–
COC(=O)[C@H]1[C@@H](O)[C@@]2(O)c3c(cc4c(c3OC)OCO4)O[C@@]2(c2ccc(OC)cc2)[C@@H]1c1ccccc1 [PANNELLIN]	11 (≈ 21.7 µM)	> 200	200 (≈ 395 µM)	> 200	> 200	> 200	0.06 (≈ 0.118 µM)	171 (≈ 338 µM)	50 (≈ 98.7 µM)	–
COc1ccc([C@@]23Oc4cc(OC)cc(OC)c4[C@]2(O)[C@H](O)[C@H](C(=O)N(C)C)[C@H]3c2ccccc2)cc1 [ROCAGLAMIDE]	8 (≈ 15.8 µM)	66 (≈ 131 µM)	200 (≈ 396 µM)	> 200	> 200	> 200	0.9 (≈ 1.78 µM)	35 (≈ 69.2 µM)	25 (≈ 49.4 µM)	–
COc1ccc([C@@]23Oc4cc(OC)cc(OC)c4[C@]2(O)[C@H](O)C[C@H]3c2ccccc2)cc1 [ROCAGLAOL]	0.4 (≈ 0.921 µM)	9 (≈ 20.7 µM)	25 (≈ 57.5 µM)	6 (≈ 13.8 µM)	24 (≈ 55.2 µM)	50 (≈ 115 µM)	0.01 (≈ 0.023 µM)	0.3 (≈ 0.69 µM)	1.6 (≈ 3.68 µM)	inactive
COc1ccc([C@]2(C(=O)O)Oc3cc4c(c(OC)c3C(=O)[C@H](C(=O)N3CCCC3NC(=O)C(C)C)[C@H]2c2ccccc2)OCO4)cc1 (some centres not stated) [THAPOXEPINE A]	–	–	–	–	–	–	> 200	> 200	> 200	–
COC(=O)[C@@H]1[C@@]2(O)c3c(cc4c(c3OC)OCO4)O[C@]1(c1ccc(OC)cc1)[C@H](c1ccccc1)[C@H]2C(=O)N1CCCC1NC(=O)C(C)C (some centres not stated) [THAPSAKINACETATE A]	–	–	–	–	–	–	> 200	> 200	> 200	–
